Data published in the supplement of paper PMC10307832.

Tests used:
Selisistat + Luminespib = compound: C1CC(C2=C(C1)C3=C(N2)C=CC(=C3)Cl)C(=O)N [Selisistat] + CCNC(=O)c1noc(-c2cc(C(C)C)c(O)cc2O)c1-c1ccc(CN2CCOCC2)cc1 [Luminespib] (partner 0.01 µM); test: relative viability (nuclei count vs DMSO), 5 days (fraction); higher = more cells survive
Method in brief: (§1)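 A single step with final 0.05% Triton X-100, 1% formaldehyde and 1 ug/ml Hoechst fixed the cells and stained nuclei 5 days after treatment. Lung cancer cell lines in 1536-well plates had been treated by pin tool the day after seeding with one drug alone or a fixed anchor-drug dose plus five library-drug doses (not always all listed) in √10 steps, and nuclei were counted on 4× images. Relative viability is the ratio of nuclei in treated wells to nuclei in vehicle wells, taken as the median of duplicate plates.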

Selisistat + Dasatinib = compound: C1CC(C2=C(C1)C3=C(N2)C=CC(=C3)Cl)C(=O)N [Selisistat] + Cc1nc(Nc2ncc(C(=O)Nc3c(C)cccc3Cl)s2)cc(N2CCN(CCO)CC2)n1 [Dasatinib] (partner 0.075 µM); test: as above
Method in brief: as §1

| Cell Line | relative viability (Selisistat + Luminespib; first compound 0.4 µM) | relative viability (Selisistat + Luminespib; first compound 1.265 µM) | relative viability (Selisistat + Luminespib; first compound 4 µM) | relative viability (Selisistat + Luminespib; first compound 12.65 µM) | relative viability (Selisistat + Luminespib; first compound 40 µM) | relative viability (Selisistat + Dasatinib; first compound 0.4 µM) | relative viability (Selisistat + Dasatinib; first compound 1.265 µM) | relative viability (Selisistat + Dasatinib; first compound 4 µM) | relative viability (Selisistat + Dasatinib; first compound 12.65 µM) | relative viability (Selisistat + Dasatinib; first compound 40 µM) |
| --- | --- | --- | --- | --- | --- | --- | --- | --- | --- | --- |
| NCI-H1355 | 0.739 | 0.834 | 0.596 | 0.683 | 0.774 | 0.684 | 0.688 | 0.519 | 0.65 | 0.789 |
| HOP-62 | 0.951 | 0.967 | 0.886 | 0.88 | 1.01 | 0.677 | 0.626 | 0.507 | 0.642 | 0.664 |
| NCI-H2085 | 0.569 | 0.406 | 0.47 | 0.452 | 0.4 | 0.262 | 0.219 | 0.204 | 0.27 | 0.257 |
